In patent US20250163047A1, “HETEROCYCLIC COMPOUNDS, COMPOSITIONS THEREOF, AND METHODS OF TREATMENT THEREWITH” (BeiGene, Ltd., priority 2022, published 2025) one finds IC50 data, which are given here for 11 compounds.

pIC50: −log10 of the molar value.

Test [1] has as its target T1, Cbl-b (aa36-427) (Homo sapiens, UniProt Q13191).
T1 construct: Cbl-b (aa36-427, in-house); made in house
The test is described as follows: Biotin-labelled Cbl-b biochemical assay (CBLB/E2-Ub binding, HTRF). As to conditions: 5.0 nM biotin labelled Cbl-b. The method, then: (§1) The assay in the absence of a Cbl-b/Cbl inhibitor, where phosphorylation of Cbl-b/Cbl by the Src kinase allows UbcH5B-Ub to bind to Cbl-b/Cbl and brings the Bodipy-Fluorescein tagged ubiquitin in proximity to the streptavidin-terbium bound to the N-terminal biotinylated Avi-tagged Cbl-b/Cbl. […] The lack of a FRET signal indicates Cbl-b/Cbl is inhibited by the Cbl-b/Cbl inhibitor.
5.0 nM recombinant biotin labelled Cbl-b was pre-incubated with a serial dilution of compounds (maximum concentration is 100 μM, 3-fold serially diluted, 16 points) at room temperature for 1.5 hour in an assay buffer containing 50 mM HEPES, pH 7.0, 100 mM NaCl, 0.01% BSA, 1 mM DTT, 0.01% Triton X-100. Then 25 nM in-house UbcH5B-Ub conjugate protein, 60 nM SRC (aa251-536, in-house), 0.5 mM ATP, 5 mM MgCl2 and Streptavidin-Tb cryptate (Cat: 610SATLB, Cisbio Bioassays) were added to plate and further incubated at room temperature for 2 hours.
In general terms: Time-resolved FRET reads energy transfer from a long-lived donor to a nearby acceptor.

The target in test [2] is T2, Cbl (aa49-434) (Homo sapiens, UniProt P22681).
T2 construct: Cbl (aa49-434, in-house); made in house
T2 sequence (P22681 49-434): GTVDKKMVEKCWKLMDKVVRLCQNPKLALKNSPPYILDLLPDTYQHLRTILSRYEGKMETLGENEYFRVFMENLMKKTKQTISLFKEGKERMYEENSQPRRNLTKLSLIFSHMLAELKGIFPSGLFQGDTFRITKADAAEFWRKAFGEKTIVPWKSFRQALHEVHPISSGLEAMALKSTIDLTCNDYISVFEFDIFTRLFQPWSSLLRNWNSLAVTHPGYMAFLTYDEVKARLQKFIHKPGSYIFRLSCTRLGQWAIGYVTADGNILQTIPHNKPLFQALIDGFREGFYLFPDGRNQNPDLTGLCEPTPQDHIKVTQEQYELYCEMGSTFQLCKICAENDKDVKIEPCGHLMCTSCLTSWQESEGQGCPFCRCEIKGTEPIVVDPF
The test is described as follows: Biotin-labelled Cbl biochemical assay (CBL/E2-Ub binding, HTRF). The following applies: 5.0 nM biotin labelled Cbl. The method, then:
as §1
5.0 nM recombinant biotin labelled Cbl was pre-incubated with a serial dilution of compounds (maximum concentration is 100 µM, 3-fold serially diluted, 16 points) at room temperature for 1.5 hour in an assay buffer containing 50 mM HEPES, pH 7.0, 100 mM NaCl, 0.01% BSA, 1 mM DTT, 0.01% Triton X-100. Then 10 nM in-house UbcH5B-Ub conjugate protein, 60 nM SRC (aa251-536, in-house), 0.5 mM ATP, 5 mM MgCl2 and Streptavidin-Tb cryptate (Cat: 610SATLB, Cisbio Bioassays) were added to plate and further incubated at room temperature for 2 hours.

Test [3] concerns the target T1, Cbl-b (aa36-427). The test is described as follows: Co-expressed Cbl-b with BirA biochemical assay (CBLB/E2-Ub binding, HTRF). As to conditions: 0.6 nM Cbl-b co-expressed with BirA, HTRF; read-out: co-express CBLB/E2-Ub-binding assay IC50.
Source text: as §1

For test [4], the target named is T2, Cbl (aa49-434). The test can be described thus: Co-expressed Cbl with BirA biochemical assay (CBL/E2-Ub binding, HTRF). As to conditions: 0.6 nM Cbl co-expressed with BirA, read-out: co-express CBL/E2-Ub-binding assay IC50.
Source text: as §1

T1 sequence (Q13191 36-427): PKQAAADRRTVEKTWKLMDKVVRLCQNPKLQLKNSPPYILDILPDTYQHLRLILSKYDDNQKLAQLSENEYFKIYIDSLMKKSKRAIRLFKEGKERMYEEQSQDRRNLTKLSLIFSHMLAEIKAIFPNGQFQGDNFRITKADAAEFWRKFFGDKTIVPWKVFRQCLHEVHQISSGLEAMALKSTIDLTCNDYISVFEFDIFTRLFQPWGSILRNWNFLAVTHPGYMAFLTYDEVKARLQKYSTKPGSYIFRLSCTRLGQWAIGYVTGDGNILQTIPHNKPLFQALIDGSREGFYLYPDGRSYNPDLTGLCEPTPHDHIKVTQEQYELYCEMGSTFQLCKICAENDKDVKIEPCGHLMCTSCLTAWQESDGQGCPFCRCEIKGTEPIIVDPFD

Regarding `C[C@H]1CCCN(Cc2cc(C(=O)Nc3cccc([C@]4(c5nncn5C)C[C@H](C)C4)c3)c3nccn3c2)C1` [Compound A2, N-(3-((1r,3S)-3-methyl-1-(4-methyl-4H-1,2,4-triazol-3-yl)cyclobutyl)phenyl)-6-(((S)-3-methylpiperidin-1-yl)methyl)imidazo[1,2-a]pyridine-8-carboxamide], the pIC50 on Cbl-b (aa36-427) [1] is 8.49; at Cbl (aa49-434) [2], 7.64.

In the case of `C[C@H]1CCCN(Cc2cc(C(=O)Nc3cccc([C@]4(c5nncn5C)C[C@@H](C)C4)c3)nc3c2CC[C@@H]3C)C1` (single isomer, unassigned) [Compound C3, (S)-7-methyl-N-(3-((1s,3R)-3-methyl-1-(4-methyl-4H-1,2,4-triazol-3-yl)cyclobutyl)phenyl)-4-(((S)-3-methylpiperidin-1-yl)methyl)-6,7-dihydro-5H-cyclopenta[b]pyridine-2-carboxamide or (R)-7-methyl-N-(3-((1s,3S)-3-methyl-1-(4-methyl-4H-1,2,4-triazol-3-yl)cyclobutyl)phenyl)-4-(((S)-3-methylpiperidin-1-yl)methyl)-6,7-dihydro-5H-cyclopenta[b]pyridine-2-carboxamide], the pIC50 at Cbl-b (aa36-427) [1] was 8.32; at Cbl (aa49-434) [2], 7.66.

As to `C[C@H]1CCCN(Cc2cc(C(=O)Nc3cccc([C@]4(c5nncn5C)C[C@@H](C)C4)c3)nc3c2CCC3(F)F)C1` [Compound C5, 7,7-difluoro-N-(3-((1s,3R)-3-methyl-1-(4-methyl-4H-1,2,4-triazol-3-yl)cyclobutyl)phenyl)-4-(((S)-3-methylpiperidin-1-yl)methyl)-6,7-dihydro-5H-cyclopenta[b]pyridine-2-carboxamide], the pIC50 on Cbl-b (aa36-427) [1] was 8.08; at Cbl (aa49-434) [2], 7.54.

In the case of `C[C@H]1CCCN(Cc2cc(C(=O)Nc3cccc([C@]4(c5nncn5C)C[C@@H](CC#N)C4)c3)c3nccn3c2)C1` [Compound A3, N-(3-((1s,3R)-3-(cyanomethyl)-1-(4-methyl-4H-1,2,4-triazol-3-yl)cyclobutyl)phenyl)-6-(((S)-3-methylpiperidin-1-yl)methyl)imidazo[1,2-a]pyridine-8-carboxamide], the pIC50 is 8.24 at Cbl-b (aa36-427) [1], 7.22 on Cbl (aa49-434) [2], 8.15 at Cbl-b (aa36-427) [3] and 7.33 on Cbl (aa49-434) [4].

As to `CC1CCc2c(CN3CCC[C@H](C)C3)cc(C(=O)Nc3cccc([C@]4(c5nncn5C)C[C@@H](C)C4)c3)nc21` (stereo partly drawn) [Compound C2, 7-methyl-N-(3-((1s,3R)-3-methyl-1-(4-methyl-4H-1,2,4-triazol-3-yl)cyclobutyl)phenyl)-4-(((S)-3-methylpiperidin-1-yl)methyl)-6,7-dihydro-5H-cyclopenta[b]pyridine-2-carboxamide], the pIC50 on Cbl-b (aa36-427) [1] is 7.92; at Cbl (aa49-434) [2], 7.54.

In the case of `C[C@H]1CCCN(Cc2cc(C(=O)Nc3cccc([C@]4(c5nncn5C)C[C@@H](C)C4)c3)c3nccn3c2)C1` [Compound A1, N-(3-((1s,3R)-3-methyl-1-(4-methyl-4H-1,2,4-triazol-3-yl)cyclobutyl)phenyl)-6-(((S)-3-methylpiperidin-1-yl)methyl)imidazo[1,2-a]pyridine-8-carboxamide], the pIC50 on Cbl-b (aa36-427) [1] is 8.27; on Cbl (aa49-434) [2], 7.50.

In the case of `C[C@H]1CCCN(Cc2cc(C(=O)Nc3cccc([C@]4(c5nncn5C)C[C@@H](CC#N)C4)c3)nc3c2CCC3(F)F)C1` [Compound C6, N-(3-((1s,3R)-3-(cyanomethyl)-1-(4-methyl-4H-1,2,4-triazol-3-yl)cyclobutyl)phenyl)-7,7-difluoro-4-(((S)-3-methylpiperidin-1-yl)methyl)-6,7-dihydro-5H-cyclopenta[b]pyridine-2-carboxamide], the pIC50 on Cbl-b (aa36-427) [1] is 8.47; on Cbl (aa49-434) [2] it was 7.32.

Regarding `C[C@@H]1CN(Cc2cc(C(=O)Nc3cccc([C@]4(c5nncn5C)C[C@@H](CC#N)C4)c3)c3nccn3c2)CCO1` [Compound A5, N-(3-((1s,3S)-3-(cyanomethyl)-1-(4-methyl-4H-1,2,4-triazol-3-yl)cyclobutyl)phenyl)-6-(((R)-2-methylmorpholino)methyl)imidazo[1,2-a]pyridine-8-carboxamide], the pIC50 was 6.86 at Cbl-b (aa36-427) [1] and 6.04 on Cbl (aa49-434) [2].

In the case of `C[C@H]1CCCN(Cc2cc(C(=O)Nc3cccc([C@]4(Cc5nncn5C)C[C@@H](C#N)C4)c3)c3nccn3c2)C1` [Compound A4, N-(3-((1r,3S)-3-cyano-1-((4-methyl-4H-1,2,4-triazol-3-yl)methyl)cyclobutyl)phenyl)-6-(((S)-3-methylpiperidin-1-yl)methyl)imidazo[1,2-a]pyridine-8-carboxamide], the values for the pIC50 on Cbl-b (aa36-427) [1] and on Cbl (aa49-434) [2] were 8.48 and 7.54, respectively.

On to `C[C@H]1CCCN(Cc2cc(C(=O)Nc3cccc([C@]4(c5nncn5C)C[C@@H](C)C4)c3)nc3c2CC[C@@H]3C)C1` (single isomer, unassigned) [Compound C4, (S)-7-methyl-N-(3-((1s,3R)-3-methyl-1-(4-methyl-4H-1,2,4-triazol-3-yl)cyclobutyl)phenyl)-4-(((S)-3-methylpiperidin-1-yl)methyl)-6,7-dihydro-5H-cyclopenta[b]pyridine-2-carboxamide or (R)-7-methyl-N-(3-((1s,3S)-3-methyl-1-(4-methyl-4H-1,2,4-triazol-3-yl)cyclobutyl)phenyl)-4-(((S)-3-methylpiperidin-1-yl)methyl)-6,7-dihydro-5H-cyclopenta[b]pyridine-2-carboxamide], for which the pIC50 at Cbl-b (aa36-427) [1] is 7.79; at Cbl (aa49-434) [2], 7.12.

`CC1CC(c2cccc(NC(=O)c3cc(CN4CCC[C@H](C)C4)c4c(n3)CCC4)c2)(c2nncn2C)C1` (stereo partly drawn) [Compound C1, (S)—N-(3-(3-methyl-1-(4-methyl-4H-1,2,4-triazol-3-yl)cyclobutyl)phenyl)-4-((3-methylpiperidin-1-yl)methyl)-6,7-dihydro-5H-cyclopenta[b]pyridine-2-carboxamide]: the pIC50 at Cbl-b (aa36-427) [1] is 7.96; at Cbl (aa49-434) [2] it was 7.22.
